The source of these data is US10654818B2, “Furane derivatives as inhibitors of ATAD2” (BAYER PHARMA AKTIENGESELLSCHAFT, priority 2015, dated 2020).

The target in this assay is T1, recombinant, N-terminally GST-tagged ATAD2 bromodomain amino acids 981-1108 (Homo sapiens, UniProt Q6PL18).
T1 construct: ATAD2 bromodomain amino acids 981-1108; made in house; host or cells: E. coli
T1 sequence (Q6PL18 981-1108): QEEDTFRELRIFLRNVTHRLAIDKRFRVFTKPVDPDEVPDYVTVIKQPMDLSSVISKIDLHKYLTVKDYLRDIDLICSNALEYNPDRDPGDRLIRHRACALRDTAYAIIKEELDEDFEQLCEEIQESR
Briefly: TR-FRET assay: disruption of the interaction between ATAD2 and acetylated Histone H4 (Ac-H4) peptide. The format is binding. Conditions: inhibition of ATAD2/Ac-H4 complex formation; 10 nM ATAD2, 50 nM Ac-H4 peptide. An excerpt:
The ability of the compounds described in the present invention to disrupt the interaction between ATAD2 and acetylated Histone H4 (Ac-H4) was used as quantitative measure of their ATAD2-binding affinities.
To this end a TR-FRET assay which detects the binding of an Ac-H4-derived synthetic peptide (purchased from e.g. Biosyntan (Berlin, Germany)) of sequence HSGRGKGGGGKGLGK(Ac)GGAKRHRK-Biotin to recombinant, N-terminally GST-tagged ATAD2 bromodomain amino acids 981-1108. The protein was produced in-house via E. coli expression followed by GSH-Sepharose affinity- and Superdex S200-size exclusion chromatography purification.
Typically, 11 different concentrations of each compound (0.1 nM, 0.33 nM, 1.1 nM, 3.8 nM, 13 nM, 44 nM, 0.15 μM, 0.51 μM, 1.7 μM, 5.9 μM and 20 μM) were tested in duplicate within the same microtiter plate. To this end, 100-fold concentrated compound solutions (in DMSO) were previously prepared with a Precision Pippeting System (BioTek) by serial dilution (1:3.4) of 2 mM stocks in clear, low-volume 384-well microtiter source plates (Greiner Bio-One). Subsequently, 50 nl of compounds were transferred into black, low-volume test plates from the same supplier using a Hummingbird capillary based liquid handling instrument (Digilab). Tests were started by the addition of 2 μl of 2.5-fold concentrated ATAD2 solution (25 nM=10 nM final concentration in the 5 μl assay volume) in aqueous assay buffer [50 mM HEPES pH 7.5, 50 mM potassium fluoride (KF), 100 mM sodium chloride (NaCl), 0.25 mM CHAPS, 0.05% bovine serum albumine (BSA) and 1 mM dithiothreitol (DTT)] to the compounds in the test plate with a Multidrop dispenser (Thermo-Fisher). Test plates were then incubated 10′ at 22° C., in order to allow pre-equilibration of putative compound-ATAD2 complexes. Subsequently, 3 μl of a 1.67-fold concentrated solution containing Ac-H4 peptide (83.5 nM=50 nM final concentration) and TR-FRET detection reagents [16.7 nM Anti-GST-XL665 (Cisbio), =10 nM final concentration and 4.17 nM Lance EU W-1024 Streptavidin Europium Chelate (Perkin-Elmer)=2.5 nM final concentration were dispensed into the plates.
The mixture was further incubated in the dark for 1 hour at 22° C. Finally the inhibition of the formation of ATAD2/Ac-H4 complexes was assessed by measurement of the resonance energy transfer from the Streptavidin-Eu-Chelate to the anti-GST-XL665 antibody present in the reaction. To this end, the fluorescence emissions at 622 nm and 665 nm after excitation at 337 nm were measured in a TR-FRET reader, e.g. a Rubystar or Pherastar (both from BMG Lab Technologies) or a Viewlux (Perkin-Elmer) and the ratio of the emissions at 665 nm and at 622 nm was taken as indicator for the amount of ATAD2/Ac-H4 complexes in equilibrium.
The data were normalized using two sets of control wells (16 each). The first accounted for 100% ATAD2/Ac-H4 binding (0% inhibition), and contained all reaction components but DMSO instead of inhibitors. The second represented 0% ATAD2/Ac-H4 binding (100% inhibition), and included all assay components except ATAD2. IC50 values were calculated by fitting the normalized inhibition data to a 4-parameter logistic equation using either Screener software (Genedata) or a Bayer-proprietary analysis software.
On the technique in general: Time-resolved FRET reads energy transfer from a long-lived donor to a nearby acceptor.
Take `COc1cc(Cl)c(C(=O)N[C@@H](CN[C@H]2CC[C@@H](N)CC2)Cc2ccc(C#N)cc2)cc1-c1ccc(CN[C@H](C)c2ccc(C)cc2)o1` [Example 87, N-[(2R)-1-[(4-aminocyclohexyl)amino]-3-(4-cyanophenyl)propan-2-yl]-2-chloro-4-methoxy-5-[5-({[(1R)-1-(4-methylphenyl)ethyl]amino}methyl)-2-furyl]benzamide]: the half-inhibitory concentration (IC50) (usually the concentration needed to halve the response being measured) came out at 216 nM.

Take `Cc1ccc([C@@H](C)NCc2ccc(-c3ccc(Cl)c(C(=O)N[C@@H](CC(N)=O)Cc4ccc(C#N)cc4)c3)o2)cc1` [Example 3, N-[(2R)-4-amino-1-(4-cyanophenyl)-4-oxobutan-2-yl]-2-chloro-5-[5-({[(1R)-1-(4-methylphenyl)ethyl]amino}methyl)furan-2-yl]benzamide]: the IC50 was determined as 927 nM.

With `Cc1ccc([C@@H](C)NCc2ccc(-c3ccc(Cl)c(C(=O)N[C@@H](CNCc4ccccc4)Cc4ccc(C#N)cc4)c3)o2)cc1` [Example 60], the concentration for half-maximal inhibition (IC50) was 1900 nM.

Regarding `CNC(=O)C[C@@H](Cc1ccc(C#N)cc1)NC(=O)c1cc(-c2ccc(CNC(C)(C)c3ccccc3)o2)ccc1Cl` [Example 93], the IC50 amounted to 7690 nM.

In the case of `Cc1ccc([C@@H](C)NCc2ccc(-c3ccc(Cl)c(C(=O)N[C@H](Cc4ccc(C#N)cc4)CN4CCCC4)c3)o2)cc1` [Example 49, 2-chloro-N-[(2R)-1-(4-cyanophenyl)-3-(pyrrolidin-1-yl)propan-2-yl]-5-[5-({[(1R)-1-(4-methylphenyl)ethyl]amino}methyl)-2-furyl]benzamide], the concentration for half-maximal inhibition (IC50) came out at 1760 nM.

With `Cc1ccc([C@@H](C)NCc2ccc(-c3ccc(Cl)c(C(=O)N[C@H](Cc4ccc(C#N)cc4)c4ncn[nH]4)c3)o2)cc1` [Example 20, 2-chloro-N-[(1R)-2-(4-cyanophenyl)-1-(1H-1,2,4-triazol-5-yl)ethyl]-5-[5-({[(1R)-1-(4-methylphenyl)ethyl]amino}methyl)-2-furyl]benzamide], the 50% inhibitory concentration (IC50) turned out to be 729 nM.

As for `Cc1ccc([C@@H](C)NCc2ccc(-c3ccc(Cl)c(C(=O)N[C@@H](CCN4CCN(C)CC4)Cc4ccc(C#N)cc4)c3)o2)cc1` [Example 25, 2-chloro-N-[(2R)-1-(4-cyanophenyl)-4-(4-methylpiperazin-1-yl)butan-2-yl]-5-[5-({[(1R)-1-(4-methylphenyl)ethyl]amino}methyl)-2-furyl]benzamide], the IC50 is 352 nM.

`Cc1ccc([C@@H](C)NCc2ccc(-c3ccc(Cl)c(C(=O)N[C@@H](CO)Cc4ccc(C#N)c(N)c4)c3)o2)cc1` [Example 40, N-[(2R)-1-(3-amino-4-cyanophenyl)-3-hydroxypropan-2-yl]-2-chloro-5-[5-({[(1R)-1-(4-methylphenyl)ethyl]amino}methyl)-2-furyl]benzamide]: the IC50 came out at 781 nM.

Consider `COc1cc(Cl)c(C(=O)N[C@@H](CN[C@H]2CC[C@@H](N)CC2)Cc2ccc(C#N)c(C)c2)cc1-c1ccc(CN[C@H](C)c2ccc(C)cc2)o1` [Example 88, N-[(2R)-1-[(4-aminocyclohexyl)amino]-3-(4-cyano-3-methylphenyl)propan-2-yl]-2-chloro-4-methoxy-5-[5-({[(1R)-1-(4-methylphenyl)ethyl]amino}methyl)-2-furyl]-benzamide], for which the IC50 turned out to be 128 nM.

Regarding `C[C@@H](NCc1ccc(-c2ccc(Cl)c(C(=O)N[C@@H](CN)Cc3ccc(C#N)cc3)c2)o1)c1ccc(C(F)(F)F)cc1` [Example 75, N-[(2R)-1-amino-3-(4-cyanophenyl)propan-2-yl]-2-chloro-5-{5-[({(1R)-1-1-[4-(trifluoromethyl)phenyl]ethyl}amino)methyl]-2-furyl}benzamide], the IC50 came to 567 nM.

As to `Cc1ccc([C@@H](C)NCc2ccc(-c3ccc(Cl)c(C(=O)N[C@@H](CO)Cc4ccc(C(N)=O)cc4)c3)o2)cc1` [Example 48, N-[(2R)-1-(4-carbamoylphenyl)-3-hydroxypropan-2-yl]-2-chloro-5-[5-({[(1R)-1-(4-methylphenyl)ethyl]amino}methyl)-2-furyl]benzamide], the IC50 was 1080 nM.

In the case of `COc1cc(C#N)ccc1C[C@H](CO)NC(=O)c1cc(-c2ccc(CN[C@H](C)c3ccc(C)cc3)o2)ccc1Cl` [Example 39, 2-chloro-N-[(2R)-1-(4-cyano-2-methoxyphenyl)-3-hydroxypropan-2-yl]-5-[5-({[(1R)-1-(4-methylphenyl)ethyl]amino}methyl)-2-furyl]benzamide], the concentration for half-maximal inhibition (IC50) turned out to be 585 nM.

As to `Cc1ccc([C@@H](C)NCc2ccc(-c3ccc(Cl)c(C(=O)N[C@H](Cc4ccc(C#N)cc4)[C@@H](O)CC(C)C)c3)o2)cc1` [Example 46, 2-chloro-N-[(2R,3S)-1-(4-cyanophenyl)-3-hydroxy-5-methylhexan-2-yl]-5-[5-({[(1R)-1-(4-methylphenyl)ethyl]amino}methyl)-2-furyl]benzamide], the IC50 worked out at 1100 nM.

Consider `Cc1ccc([C@@H](C)NCc2ccc(-c3ccc(Cl)c(C(=O)N[C@@H](CCN[C@@H]4CCN(C)C4)Cc4ccc(C#N)cc4)c3)o2)cc1` [Example 34, 2-chloro-N-[(2R)-1-(4-cyanophenyl)-4-{[(3R)-1-methylpyrrolidin-3-yl]amino}butan-2-yl]-5-[5-({[(1R)-1-(4-methylphenyl)ethyl]amino}methyl)-2-furyl]benzamide], for which the 50% inhibitory concentration (IC50) is 423 nM.

With `Cc1ccc([C@@H](C)NCc2ccc(-c3ccc(Cl)c(C(=O)N[C@@H](CC(=O)N4CCN(C)CC4)Cc4ccc(C#N)cc4)c3)o2)cc1` [Example 11, 2-chloro-N-[(2R)-1-(4-cyanophenyl)-4-(4-methylpiperazin-1-yl)-4-oxobutan-2-yl]-5-[5-({[(lR)-1-(4-methylphenyl)ethyl]amino}methyl)-2-furyl]benzamide], the half-inhibitory concentration (IC50) amounted to 822 nM.

Turning to `Cc1ccc([C@@H](C)NCc2ccc(-c3ccc(Cl)c(C(=O)N[C@@H](CNC(=O)CC4CCNCC4)Cc4ccc(C#N)cc4)c3)o2)cc1` [Example 57, 2-chloro-N-{(2R)-1-(4-cyanophenyl)-3-[(piperidin-4-ylacetyl)amino]propan-2-yl}-5-[5-({[(1R)-1-(4-methylphenyl)ethyl]amino}methyl)-2-furyl]benzamide], the half-inhibitory concentration (IC50) was 520 nM.

On to `Cc1ccc([C@@H](C)NCc2ccc(-c3ccc(Cl)c(C(=O)N[C@@H](CNC4CCNC(C)(C)C4)Cc4ccc(C#N)cc4)c3)o2)cc1` (mixture of isomers) [Example 68], for which the IC50 amounted to 109 nM.

Take `CNC(=O)C[C@@H](Cc1ccccc1)NC(=O)c1cc(-c2ccc(CN[C@H](C)c3ccc(C)cc3)o2)ccc1Cl` [Example 92]: the half-maximal inhibitory concentration (IC50) stood at 8370 nM.

For `Cc1ccc([C@@H](C)NCc2ccc(-c3ccc(Cl)c(C(=O)N[C@H]4CNCC[C@H]4c4ccc(C#N)cc4)c3)o2)cc1` (stereo in doubt) [Example 76, Cis-chloro-N-[4-(4-cyanophenyl)piperidin-3-yl]-5-[5-({[(1R)-1-(4-methylphenyl)-ethyl]amino}methyl)-2-furyl]benzamide], the 50% inhibitory concentration (IC50) turned out to be 441 nM.

As to `COc1cc(Cl)c(C(=O)N[C@H](Cc2ccc(C#N)cc2)C(=O)N[C@H]2CC[C@H](N)CC2)cc1-c1ccc(CN[C@H](C)c2ccc(C)cc2)o1` [Example 85, N-(trans-4-aminocyclohexyl)-Nα-{2-chloro-4-methoxy-5-[5-({[(1R)-1-(4-methylphenyl)ethyl]amino}methyl)-2-furyl]benzoyl}-4-cyano-D-phenylalaninamide], the IC50 came out at 415 nM.

As for `COc1cc(Cl)c(C(=O)N[C@@H](CN)Cc2ccc(C#N)c(C)c2)cc1-c1ccc(CN[C@H](C)c2ccc(C)cc2)o1` [Example 84, N-[(2R)-1-amino-3-(4-cyano-3-methylphenyl)propan-2-yl]-2-chloro-4-methoxy-5-[5-({[(1R)-1-(4-methylphenyl)ethyl]amino}methyl)-2-furyl]benzamide], the IC50 turned out to be 270 nM.
